We go through three molecules from patent CN102911068A, “左旋肉碱l-苹果酸盐及其制备方法与用途” (GUANGZHOU AOHAI BIO-TECHNOLOGY CO LTD, priority 2011, dated 2013).

The subject of data set [1] is obese model rats [肥胖模型大鼠]. Kind of data set: Weight-loss efficacy test in obese model SD rats (diet-induced obesity, with swimming exercise). It is filed as in vivo, rat. The note with it: 30 days; for body fat (testicular and perirenal fat pads) / body weight increase / fat/body ratio: gavage.
Data set [2] in a line: Angle of repose (powder poured through a funnel) / flowability. It is filed as physicochemical.
Data set [3] in a line: Critical relative humidity (CRH) from moisture absorption equilibrium curve. It is filed as physicochemical.
For data set [4] the following is noted: background art, cited from earlier work.
For data set [5] the following is noted: background art; cited from earlier work.
The mark [6] stands for this setting: high dose + exercise (30x recommended human dose; Ex. 2 at maximum dissolved concentration; Ex. 1/2/3/4: 0.96/0.36/1.02/1.08 g in 2 ml water), * (P<0.05 vs model control): all.
Where [7] appears, read: L-carnitine tartrate control + exercise, 0.13 g in 2 ml water, swimming 30 min, 5 times/week, * (P<0.05 vs model control) printed.

Consider `C[N+](C)(C)CC(O)CC(=O)O` (centres unmarked) [实施例1药, 左旋肉碱L-苹果酸盐], for which the “body fat (testicular and perirenal fat pads)” value in data set [1] (setting [6]) amounted to 5.9 ± 4.5 g; in data set [1] (low dose + exercise (5x recommended human dose; Ex. 1/2/3/4: 0.16/0.18/0.17/0.18 g in 2 ml water), * (P<0.05 vs model control): Ex. 2, 3, 4), 7.3 ± 4.1 g. Further, the body weight increase worked out at 15.2 ± 7.9 g in data set [1] (setting [6]) and 19.3 ± 10.2 g in data set [1] (low dose + exercise (5x recommended human dose; Ex. 1/2/3/4: 0.16/0.18/0.17/0.18 g in 2 ml water), * (P<0.05 vs model control): Ex. 1, 3, 4). Besides, the fat/body ratio in data set [1] (setting [6]) amounted to 0.02±0.02; in data set [1] (low dose + exercise (5x recommended human dose; Ex. 1/2/3/4: 0.16/0.18/0.17/0.18 g in 2 ml water), no * printed), 0.03±0.01. Also, the “difference between results of Example 1, 2, 3 and 4 drugs” value in data set [1] (words, obese rats) is “无明显差异”. Further, the angle of repose in data set [2] (solid powder flowing from funnel) was found to be 30 °. In data set [2] (words, judged from angle of repose), the flowability entry is recorded as “流动性较好”. Moreover, in data set [3] (25 °C, saturated salt solutions in desiccator), the “critical relative humidity CRH” value came out at 87%. Further, in data set [3] (words, judged from CRH at 25 °C), the “moisture absorption (hygroscopicity)” value is recorded as “不易吸潮”.
For the molecule `C[N+](C)(C)CC(O)CC(=O)O` (centres unmarked) [左旋肉碱酒石酸盐, reference compound], the “body fat (testicular and perirenal fat pads)” value in data set [1] (L-carnitine tartrate control + exercise, 0.13 g in 2 ml water, swimming 30 min, 5 times/week) came to 8.2 ± 4.3 g. In data set [1] (setting [7]), the body weight increase is 21.3 ± 14.2 g and the fat/body ratio is 0.03±0.01. For the same molecule, in data set [4] (words), the hygroscopicity result is on record as “仍有较大的吸湿性”. Further, the “relative humidity at which deliquescence occurs” value in data set [4] is listed as above 60%.
What is called LD50 is the dose at which mortality reaches 50%. `CC(=O)[O-].CC(=O)[O-].[Ca+2]` [醋酸钙]: in data set [5], the 50% lethal dose (LD50) was below 5000 mg/kg.
